Measured values taken from patent publication US20070060532A1, “Use of metformin and orlistat for the treatment or prevention of obesity” (Fournier Laboratories Ireland Limited, priority 2004, published 2007).

Tested on: C57BL/6 EOPS male mice
Experiment: Effect of metformin and orlistat co-administration on body weight in mice fed with high-fat diet
Type: in vivo
Details: p.o. mixed with the diet, orlistat 2 mg/kg, metformin 100 mg/kg, mean±s.e.m.
Procedure: This study was designed to evaluate the effects of a combination of metformin and orlistat on body weight.
Animals: C57BL/6 EOPS male mice, weighing approximately 20 g, were used in the study. C57BL/6 EOPS mice are normal mice which, when subjected to a high-fat diet, become obese and develop hyperglycaemia. They were put by 5 into individual cages in a temperature-, humidity- and light-controlled room (21-23° C.±2° C., 12 h-12 h light-dark cycle). […] After acclimatization, they were randomized into groups of 20, based on body weight.
The experimental groups were:
Group 1: mice fed with standard diet
Group 2: mice fed with high-fat diet, treated with orlistat 2 mg/kg p.o., mixed with the diet
Group 3: mice fed with high-fat diet, treated with metformin 100 mg/kg p.o., mixed with the diet
Group 4: mice fed with high-fat diet, treated with orlistat 2 mg/kg p.o. and metformin 100 mg/kg p.o., mixed with the diet.
Body weight was recorded at the beginning of the study, and after one and three weeks of treatment, respectively.
Statistics: All data are presented as mean±s.e.m. Results were subjected to covariance analysis corrected from baseline followed by Turkey-Kramer adjustment for multiple comparisons. A p<0.1 was considered significant (vs. standard diet).

CCCCCCCCCCC[C@@H](C[C@@H]1OC(=O)[C@H]1CCCCCC)OC(=O)[C@H](CC(C)C)NC=O (relative stereo) [Orlistat, [2S-[2α(R*),3β]]-N-formyl-L-leucine 1-[(3-hexyl-4-oxo-2-oxetanyl)methyl]dodecyl ester]
Body weight gain (g) after 1 week: +3.2 ± 0.48 g | Body weight gain (g) after 3 weeks: +5.5 ± 0.63 g

CN(C)C(=N)NC(=N)N [Metformin, 1,1-dimethylbiguanide]
Body weight gain (g) after 1 week: +1.3 ± 0.14 g | Body weight gain (g) after 3 weeks: +3.5 ± 0.25 g
